The target of assay [1] is T1, cloned human MC4R (Homo sapiens, UniProt P32245).
T1 construct: made in house; host or cells: Hi5 insect cells (baculovirus infection); membrane preparation
As to the kind of experiment: Membrane binding assay: competitive inhibition of [125I]NDP-α-MSH binding. The following applies: for inhibition at 10 µM: read-out: Displacement Rate (%) (at 10 μM); for IC50: read-out: MC4R IC50.

Assay [2] deals with Rodents. Particulars: injected intracerebroventricularly (ICV); NPY, ob/ob, agouti, fasted feeding models; cited from earlier work.
Assay [3] has as its system male volunteers / patients with psychogenic erectile dysfunction. The following applies: cited from earlier work.
Where [4] appears, read: at 10 μM, [125I]NDP-α-MSH displacement.
Setting [5] is: intramuscular, 0.005-0.03 mg/kg, three normal male volunteers.
The mark [6] stands for this setting: subcutaneous, 0.025 mg/kg and 0.1 mg/kg, 10 patients with psychogenic erectile dysfunction.

Where two headings read alike, the source gives them in different places.

T1 sequence (P32245 whole entry): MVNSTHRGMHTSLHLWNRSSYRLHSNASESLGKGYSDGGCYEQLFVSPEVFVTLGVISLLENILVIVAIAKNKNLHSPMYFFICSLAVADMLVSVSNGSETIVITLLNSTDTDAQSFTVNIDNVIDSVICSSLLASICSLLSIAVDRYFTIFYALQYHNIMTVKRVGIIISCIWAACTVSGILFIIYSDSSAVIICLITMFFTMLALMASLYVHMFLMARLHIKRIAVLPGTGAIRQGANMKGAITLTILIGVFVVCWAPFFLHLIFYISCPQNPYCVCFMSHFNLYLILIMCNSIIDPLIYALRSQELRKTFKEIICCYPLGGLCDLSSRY

As for `CCOc1cccc(-c2ccc(C[C@H](N)C(=O)N3CCN(Cc4cccc(Cl)c4Cl)CC3)cc2)c1` [Example 308], in assay [1] (setting [4]), the inhibition at 10 µM fell in the range of 91 to 100%. For the same molecule, in assay [1], the IC50 was less than 1.5 µM.

In the case of `N[C@@H](Cc1ccc(-c2ccccc2F)cc1)C(=O)N1CCN(Cc2cccc(Cl)c2Cl)CC1` [Example 309], the inhibition at 10 µM in assay [1] (setting [4]) fell in the range of 91 to 100%. In assay [1], the IC50 was less than 1.5 µM.

Turning to `CCOc1ccc(-c2ccc(C[C@H](N)C(=O)N3CCN(Cc4cccc(Cl)c4Cl)CC3)cc2)cc1` [Example 310], the inhibition at 10 µM in assay [1] (setting [4]) lay in the range of 91 to 100%. Besides, the IC50 in assay [1] was less than 1.5 µM.

For `N[C@@H](Cc1ccc(-c2cccc(F)c2)cc1)C(=O)N1CCN(Cc2cccc(Cl)c2Cl)CC1` [Example 311], in assay [1] (setting [4]), the inhibition at 10 µM was in the range of 91 to 100%. The concentration for half-maximal inhibition (IC50) in assay [1] is less than 1.5 µM.

As to `N[C@@H](Cc1ccc(-c2cc(Cl)cc(Cl)c2)cc1)C(=O)N1CCN(Cc2cccc(Cl)c2Cl)CC1` [Example 312], the inhibition at 10 µM in assay [1] (setting [4]) lay in the range of 91 to 100%. Moreover, the IC50 in assay [1] is 1.5 to 3 µM.

On to `Cc1ccccc1-c1ccc(C[C@H](N)C(=O)N2CCN(Cc3cccc(Cl)c3Cl)CC2)cc1` [Example 313], for which, in assay [1] (setting [4]), the inhibition at 10 µM fell in the range of 91 to 100%. Moreover, in assay [1], the half-inhibitory concentration (IC50) lay in the range of 1.5 to 3 µM.

With `N[C@@H](Cc1ccc(-c2ccc(-c3ccccc3)cc2)cc1)C(=O)N1CCN(Cc2cccc(Cl)c2Cl)CC1` [Example 314], the inhibition at 10 µM in assay [1] (setting [4]) was 91 to 100%. Further, in assay [1], the IC50 was in the range of 1.5 to 3 µM.

As to `N[C@@H](Cc1ccc(-c2ccccc2C(F)(F)F)cc1)C(=O)N1CCN(Cc2cccc(Cl)c2Cl)CC1` [Example 315], the inhibition at 10 µM in assay [1] (setting [4]) was in the range of 91 to 100%. Moreover, the half-inhibitory concentration (IC50) in assay [1] was 1.5 to 3 µM.

`COc1ccc(-c2ccc(C[C@H](N)C(=O)N3CCN(Cc4cccc(Cl)c4Cl)CC3)cc2)cc1` [Example 317]: in assay [1] (setting [4]), the inhibition at 10 µM fell in the range of 91 to 100%. For the same molecule, the IC50 in assay [1] was in the range of 1.5 to 3 µM.

Regarding `Cc1cccc(-c2ccc(C[C@H](N)C(=O)N3CCN(Cc4cccc(Cl)c4Cl)CC3)cc2)c1` [Example 318], in assay [1] (setting [4]), the inhibition at 10 µM was 91 to 100%. In assay [1], the IC50 fell in the range of 1.5 to 3 µM.

Regarding `N[C@@H](Cc1ccc(-c2ccc3c(c2)OCO3)cc1)C(=O)N1CCN(Cc2cccc(Cl)c2Cl)CC1` [Example 319], the “Displacement Rate (%) (at 10 μM)” value in assay [1] (setting [4]) was “++ (++ = 71-90)”. Also, in assay [1], the 50% inhibitory concentration (IC50) was 1.5 to 3 µM.

`COc1ccc(OC)c(-c2ccc(C[C@H](N)C(=O)N3CCN(Cc4cccc(Cl)c4Cl)CC3)cc2)c1` [Example 320]: in assay [1] (setting [4]), the “Displacement Rate (%) (at 10 μM)” value is recorded as “+++ (+++ = 91-100)”. For the same molecule, in assay [1], the concentration for half-maximal inhibition (IC50) was in the range of 1.5 to 3 µM.

For the molecule `N[C@@H](Cc1ccc(-c2ccccc2Cl)cc1)C(=O)N1CCN(Cc2cccc(Cl)c2Cl)CC1` [Example 321], the inhibition at 10 µM in assay [1] (setting [4]) is 91 to 100%. The IC50 in assay [1] fell in the range of 1.5 to 3 µM.

Take `COc1ccc(-c2ccc(C[C@H](N)C(=O)N3CCN(Cc4cccc(Cl)c4Cl)CC3)cc2)c(OC)c1` [Example 322]: the “Displacement Rate (%) (at 10 μM)” value in assay [1] (setting [4]) was “++ (++ = 71-90)”. In addition, the IC50 in assay [1] is 1.5 to 3 µM.

As to `CN(C)c1ccc(-c2ccc(C[C@H](N)C(=O)N3CCN(Cc4cccc(Cl)c4Cl)CC3)cc2)cc1` [Example 323], the inhibition at 10 µM in assay [1] (setting [4]) lay within 71 to 90%. Moreover, in assay [1], the 50% inhibitory concentration (IC50) was in the range of 1.5 to 3 µM.

With `N[C@@H](Cc1ccc(-c2c(Cl)cccc2Cl)cc1)C(=O)N1CCN(Cc2cccc(Cl)c2Cl)CC1` [Example 324], the inhibition at 10 µM in assay [1] (setting [4]) lay within 91 to 100%. The IC50 in assay [1] fell in the range of 1.5 to 3 µM.

For the molecule `COc1cccc(-c2ccc(C[C@H](N)C(=O)N3CCN(Cc4cccc(Cl)c4Cl)CC3)cc2)c1` [Example 325], in assay [1] (setting [4]), the inhibition at 10 µM is 71 to 90%. Also, in assay [1], the IC50 lay in the range of 1.5 to 3 µM.

`COc1ccccc1-c1ccc(C[C@H](N)C(=O)N2CCN(Cc3cccc(Cl)c3Cl)CC2)cc1` [Example 326]: in assay [1] (setting [4]), the inhibition at 10 µM was 71 to 90%. Also, in assay [1], the IC50 was in the range of 1.5 to 3 µM.

`COc1ccc(Cl)cc1-c1ccc(C[C@H](N)C(=O)N2CCN(Cc3cccc(Cl)c3Cl)CC2)cc1` [Example 327]: the “Displacement Rate (%) (at 10 μM)” value in assay [1] (setting [4]) is listed as “+++ (+++ = 91-100)”. For the same molecule, the IC50 in assay [1] is 1.5 to 3 µM.

Take `CC(=O)c1cccc(-c2ccc(C[C@H](N)C(=O)N3CCN(Cc4cccc(Cl)c4Cl)CC3)cc2)c1` [Example 328]: the inhibition at 10 µM in assay [1] (setting [4]) is 71 to 90%. The half-maximal inhibitory concentration (IC50) in assay [1] lay in the range of 1.5 to 3 µM.

For the molecule `N[C@@H](Cc1ccc(-c2ccc(C(=O)O)cc2)cc1)C(=O)N1CCN(Cc2cccc(Cl)c2Cl)CC1` [Example 329], in assay [1] (setting [4]), the inhibition at 10 µM lay in the range of 71 to 90%. For the same molecule, the IC50 in assay [1] is greater than 3 µM.

As to `N[C@@H](Cc1ccc(-c2cccc([N+](=O)[O-])c2)cc1)C(=O)N1CCN(Cc2cccc(Cl)c2Cl)CC1` [Example 330], the inhibition at 10 µM in assay [1] (setting [4]) lay within 71 to 90%. In addition, the IC50 in assay [1] is greater than 3 µM.

`COc1ccc(-c2ccc(C[C@H](N)C(=O)N3CCN(Cc4cccc(Cl)c4Cl)CC3)cc2)cc1OC` [Example 331]: the “Displacement Rate (%) (at 10 μM)” value in assay [1] (setting [4]) is on record as “+ (+ = 35-70)”. Further, the IC50 in assay [1] was greater than 3 µM.

Consider `CC(C)c1ccc(-c2ccc(C[C@H](N)C(=O)N3CCN(Cc4cccc(Cl)c4Cl)CC3)cc2)cc1` [Example 332], for which the inhibition at 10 µM in assay [1] (setting [4]) was in the range of 35 to 70%. Also, in assay [1], the concentration for half-maximal inhibition (IC50) is greater than 3 µM.

On to `Nc1cccc(-c2ccc(C[C@H](N)C(=O)N3CCN(Cc4cccc(Cl)c4Cl)CC3)cc2)c1` [Example 333], for which, in assay [1] (setting [4]), the inhibition at 10 µM was 71 to 90%. Also, the IC50 in assay [1] is greater than 3 µM.

Regarding `COc1cc(-c2ccc(C[C@H](N)C(=O)N3CCN(Cc4cccc(Cl)c4Cl)CC3)cc2)cc(OC)c1OC` [Example 334], the inhibition at 10 µM in assay [1] (setting [4]) lay in the range of 35 to 70%. The IC50 in assay [1] was greater than 3 µM.

Regarding `N[C@@H](Cc1ccc(-c2cccc3c2Sc2ccccc2O3)cc1)C(=O)N1CCN(Cc2cccc(Cl)c2Cl)CC1` [Example 335], in assay [1], the inhibition at 10 µM was in the range of 91 to 100% and the IC50 is less than 1.5 µM.

On to `N[C@@H](Cc1ccc(-c2cccc3c2oc2ccccc23)cc1)C(=O)N1CCN(Cc2cccc(Cl)c2Cl)CC1` [Example 336], for which, in assay [1], the inhibition at 10 µM fell in the range of 91 to 100% and the IC50 is less than 1.5 µM.

As to `N[C@@H](Cc1ccc(-c2cccc3c2sc2ccccc23)cc1)C(=O)N1CCN(Cc2cccc(Cl)c2Cl)CC1` [Example 337], in assay [1], the inhibition at 10 µM fell in the range of 91 to 100% and the IC50 was less than 1.5 µM.

`N[C@@H](Cc1ccc(-c2cc3ccccc3s2)cc1)C(=O)N1CCN(Cc2cccc(Cl)c2Cl)CC1` [Example 338]: in assay [1], the inhibition at 10 µM lay within 91 to 100% and the half-maximal inhibitory concentration (IC50) is less than 1.5 µM.

`N[C@@H](Cc1ccc(-c2ccsc2)cc1)C(=O)N1CCN(Cc2cccc(Cl)c2Cl)CC1` [Example 339]: in assay [1], the inhibition at 10 µM lay in the range of 91 to 100% and the IC50 is less than 1.5 µM.

`N[C@@H](Cc1ccc(-c2cccc3cccnc23)cc1)C(=O)N1CCN(Cc2cccc(Cl)c2Cl)CC1` [Example 340]: in assay [1], the inhibition at 10 µM was 71 to 90% and the IC50 lay within 1.5 to 3 µM.

Consider `N[C@@H](Cc1ccc(-c2cnc3ccccc3c2)cc1)C(=O)N1CCN(Cc2cccc(Cl)c2Cl)CC1` [Example 341], for which, in assay [1], the inhibition at 10 µM was in the range of 71 to 90% and the IC50 was 1.5 to 3 µM.

Regarding `CC(=O)c1ccc(-c2ccc(C[C@H](N)C(=O)N3CCN(Cc4cccc(Cl)c4Cl)CC3)cc2)s1` [Example 342], in assay [1], the inhibition at 10 µM was in the range of 71 to 90% and the IC50 was in the range of 1.5 to 3 µM.

`COc1ccc(-c2ccc(C[C@H](N)C(=O)N3CCN(Cc4cccc(Cl)c4Cl)CC3)cc2)cn1` [Example 343]: in assay [1], the inhibition at 10 µM fell in the range of 35 to 70% and the IC50 is greater than 3 µM.

For the molecule `N[C@@H](Cc1ccc(Oc2ccccc2)cc1)C(=O)N1CCN(Cc2cccc(Cl)c2Cl)CC1` [Example 344], in assay [1], the IC50 was greater than 3 µM.

Turning to `Cc1ccc(Oc2ccc(C[C@H](N)C(=O)N3CCN(Cc4cccc(Cl)c4Cl)CC3)cc2)cc1` [Example 345], in assay [1], the 50% inhibitory concentration (IC50) was less than 1.5 µM.

As for `N[C@@H](Cc1ccc(Oc2ccc(Cl)c(Cl)c2)cc1)C(=O)N1CCN(Cc2cccc(Cl)c2Cl)CC1` [Example 346], the IC50 in assay [1] is 1.5 to 3 µM.

On to `Cc1cccc(Oc2ccc(C[C@H](N)C(=O)N3CCN(Cc4cccc(Cl)c4Cl)CC3)cc2)c1` [Example 347], for which the 50% inhibitory concentration (IC50) in assay [1] lay in the range of 1.5 to 3 µM.

For `Cc1ccccc1Oc1ccc(C[C@H](N)C(=O)N2CCN(Cc3cccc(Cl)c3Cl)CC2)cc1` [Example 348], the concentration for half-maximal inhibition (IC50) in assay [1] is 1.5 to 3 µM.

In the case of MT-II, the food intake entry in assay [2] is reported as “reduced food intake”. In assay [3] (setting [5]), the penile erections entry is listed as “intermittent non-painful penile erections” and the “period of erections after dosing” value is 1 to 5 h. Besides, in assay [3] (setting [6]), the “onset of transient erections” value was 50 to 180 min and the “responders with transient erections” value is listed as 8.

Regarding SHU-9119, the food intake entry in assay [2] is “reverses this effect and can induce hyperphagia”.

The values are drawn from patent US6916812B2, “Alpha-aminoamide derivatives as melanocortin agonists” (Bristol-Myers Squibb Company, priority 2001, dated 2005).
